The target in series [1] is T1, ATase (Homo sapiens, UniProt P16455).
T1 sequence (P16455 1-207): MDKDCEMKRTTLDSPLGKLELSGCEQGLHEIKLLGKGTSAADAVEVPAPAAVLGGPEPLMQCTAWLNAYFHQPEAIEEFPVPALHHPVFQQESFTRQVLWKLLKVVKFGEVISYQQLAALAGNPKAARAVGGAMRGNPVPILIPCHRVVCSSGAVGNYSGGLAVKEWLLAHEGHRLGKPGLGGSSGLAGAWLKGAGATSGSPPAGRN
Nature of the series: In vitro ATase inactivation assay with purified recombinant human ATase. It counts as biochemical. The note with it: for effectiveness in the in vitro ATase inactivation assay compared with BeG: Figure 1, in words. Details: made in house. The method, then: The cDNA cloning and overexpression of the human ATase has been reported previously^23. Purification of the recombinant proteins was achieved either by affinity chromatography through a DNA-cellulose column as described by Wilkinson et al.,^25, 26, or by DEAE-cellulose ion-exchange chromatography. For the latter, the ATase protein was partially purified by ammonium sulphate precipitation (30 - 60%) and dialysed against 10 mM Tris-HCl pH 7.5, 1 mM DTT, 2 mM EDTA, 10% glycerol, before loading on a DEAF-cellulose column. The ATase was then eluted with a 0-0.1 M NaCl gradient.
Compounds to be tested were dissolved in DMSO to a final concentration of 10 mM and diluted just before use in buffer I containing 1 mg/ml bovine serum albumin (IBSA). Recombinant ATase was diluted in IBSA and titrated in order that the reaction be conducted under ATase, and not substrate, limiting conditions. In each assay, fixed amounts of ATase (60-75 fmol) were incubated with varying amounts of 0^6-benzylguanine, or test compound in a total volume of 200 µl of IBSA containing 10 µg of calf thymus DNA at 37°C for 1 hour. The [^3H]-methylated-DNA substrate (100 µl containing 6.7 µg of DNA and 100 fmol of 0^6-methylguanine) was added and incubation continued at 37° for 1 hour, until the reaction was completed. Following acid hydrolysis of the DNA as previously described^21 the [^3H]-methylated protein was recovered and quantitated by liquid scintillation counting. Samples were typically assayed in duplicate and experiments repeated several times. I50 is the concentration of inactivator required to produce a 50% reduction in ATase activity.

The next series relates to Raji cells. Nature of the series: Sensitization of Raji cells to BCNU (XTT assay). It counts as cell-based, human. As to conditions: for Raji sensitization (D90.^C/D90.^I) 1.0µM / Raji sensitization (D90.^C/D90.^I) O.1µM: BCNU, 2 hour pretreatment; for Raji sensitization (D90.^C/D90.^I) 1.0µM: inactivator 1.0µM; for Raji sensitization (D90.^C/D90.^I) O.1µM: inactivator O.1µM; for sensitizing Raji cells to the growth inhibitory effects of BCNU, compared with BeG: Figure 2, in words. The method, then:
Following a 2 hour incubation at 37°C, medium containing either increasing doses of BCNU, temozolomide or equivalent vehicle was added and the cells allowed to grow for 6 days. At this time XTT solution was added and the cells incubated for a further 4 hours at 37°C. The resulting red/orange formazan reaction product was quantified by measuring absorption at 450nm on a microtitre platereader.
(In general: Formazan colour is commonly taken as a measure of viable cells.)

The target in series [2] is T1, ATase. Put plainly: Inactivation of ATase activity in WiDr cells. It counts as cell-based. The arrangement: endogenous in cells; host or cells: Raji. The method, then:
(§1) Mammalian cells were cultured under standard conditions. For example, Raji (a human lymphoblastoid cell line from a Burkitt's lymphoma) cells were grown in suspension culture in RPMI medium supplemented with 10% horse serum. A375M cells are human melanoma cells from which the xenografts described below were established following subcutaneous injection into nude mice: WiDr cells are a human colon carcinoma cell line: Hamster+120 cells are a mitozolomide-selected subline of a Chinese hamster lung fibroblast V79 cell line called RJKO: Yoshida cells are a rat carcinosarcoma cell line and YRbus is a busulphan resistant subline thereof: XP cells are an SV40-transformed fibroblast cell line originally from the skin of a Xeroderma pigmentosum patient, pHMGhAT2b cells are a clone of these cells that have been transfected with a mammalian cell expression vector containing the human ATase cDNA and pHMGla cells are a clone that have been transfected with the expression vector only (i.e. one not containing the human ATase cDNA). Cell pellets were resuspended in cold (4°C) buffer I containing 2 µg/ml leupeptin and sonicated for 10 seconds at 12 µ peak to peak distance. After cooling in ice, the cells were sonicated for a further 10 seconds at 18 µ. […]

The test system of the next series is XP cells. Nature of the series: Growth inhibition of Xeroderma pigmentosum cells by inactivator alone. It counts as cell-based, human. As to conditions: inactivator alone, Figure 6, compared with V79 cells, in words. The method, then:
In order to assess the effects on cell growth alone, Xeroderma pigmentosum cells and Chinese Hamster V79 cells were exposed to increasing concentrations (up to 600µM) of selected inactivators for 2h at 37°. In some cases, the inactivators were allowed to undergo hydrolysis at 37°C for 20 hours and then added to […] in order to assess the extent to which the decomposition products of the agents might inhibit cell growth. After 6 days the extent of cell growth was determined as described above.

Series [3] can be described thus: Stability of inactivators at 37°C (spectrophotometric half life). It counts as physicochemical. The method, boiled down: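 Inactivators diluted from 10mM DMSO stock to 0.1mM in degassed buffer I (1mM EDTA, 50mM Tris pH 8.3) or PBS (pH 7-7.2) at 37°C. UV scans at compound-specific wavelength every 3-10 minutes for up to 80 hours; T1/2 extrapolated from percentage absorbance change versus time.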

In series [4] the target is T1, ATase. Nature of the series: Inactivation of ATase activity in XP cells. It counts as cell-based. Details: endogenous in cells; host or cells: Raji. The method, then:
as §1

Series [5] has as its system ATase. Nature of the series: Inactivation of ATase in mammalian cells, summary over cell lines. It counts as cell-based. As to conditions: range over the cell lines of Table 5 (table head: µM; no unit in the sentence); read-out: I50 values for ATase inactivation in human, rat and Chinese hamster cells. The method, then: Mammalian cells were cultured under standard conditions. For example, Raji (a human lymphoblastoid cell line from a Burkitt's lymphoma) cells were grown in suspension culture in RPMI medium supplemented with 10% horse serum. […]
Cells were diluted to 10^6/ml in culture medium containing either the appropriate concentration of inactivator or an equivalent volume of vehicle (DMSO). […] ATase activity was determined as described above, in duplicate sonicated cell extracts and expressed as the percentage activity remaining based on that present in the untreated controls (for example 350-450 fm/mg in Raji cells).

Where [6] appears, read: 0.1mM in PBS (pH 7-7.2), read-out: T1/2(h) in PBS (converted).
Where [7] appears, read: 0.1mM in buffer I (1mM EDTA, 50mM Tris pH 8.3), read-out: T1/2(h) in Buffer I (converted).

Molecules are shown by their SMILES. Read-outs that look alike come from different tables or passages of the source.

For the compound `Nc1nc(OCc2ccco2)c2nc[nH]c2n1` [B.4203, O^6-furfurylguanine], the IC50 at ATase [1] was 80 nM; at ATase [2] (Human WiDr cells, 2 hours at 37°C, read-out: Inactivation of ATase in Mammalian Cells I50(µM) Human WiDr), 0.08 µM; at ATase [4] (Human XP cells, 2 hours at 37°C, read-out: Inactivation of ATase in Mammalian Cells I50(µM) Human XP) it was 0.06 µM; in the series on ATase [5] it was 0.04 to 0.12 µM. The “effectiveness in the in vitro ATase inactivation assay compared with BeG” value on ATase [1] is listed as “not as effective as BeG”. Besides, the “Raji sensitization (D90.^C/D90.^I) 1.0µM” value with Raji cells is on record as 5.7. Further, in the series on Raji cells, the “Raji sensitization (D90.^C/D90.^I) O.1µM” value was 2.6. In addition, the “susceptibility of XP cells to the growth inhibitory effects of the inactivator” value in the series on XP cells was “as susceptible”. The half-life at 100 µM was 0.17 h in series [3] (setting [6]) and 0.3 h in series [3] (setting [7]).
On to `Nc1nc(OCc2cccs2)c2nc[nH]c2n1` [B.4205, O^6-thenylguanine], for which the IC50 on ATase [1] was 18 nM; at ATase [2], 0.02 µM; on ATase [4] it was 0.03 µM; in the series on ATase [5], 0.02 to 0.03 µM. Further, on ATase [1], the “effectiveness in the in vitro ATase inactivation assay compared with BeG” value is recorded as “considerably better”. Also, the “sensitizing Raji cells to the growth inhibitory effects of BCNU, compared with BeG” value with Raji cells (0.1uM inactivator) is “more effective than BeG”; in the series with Raji cells (1.0uM inactivator), “equally effective”. In addition, the “Raji sensitization (D90.^C/D90.^I) 1.0µM” value in the series on Raji cells worked out at 8.0. Also, the “Raji sensitization (D90.^C/D90.^I) O.1µM” value in the series on Raji cells is reported as 8.4. Besides, in the series on XP cells, the “susceptibility of XP cells to the growth inhibitory effects of the inactivator” value was “more sensitive than V79 cells”. In addition, the half-life at 100 µM in series [3] (setting [6]) is 0.6 h; in series [3] (setting [7]), 1.2 h.

The values are drawn from patent EP0702683B1, “06-SUBSTITUTED GUANINE DERIVATIVES, A PROCESS FOR THEIR PREPARATION AND THEIR USE IN TREATING TUMOUR CELLS” (Cancer Research Technology Limited, priority 1993, dated 1994).
